Experimental data reported in patent US11332470B2, “CXCR4 inhibitors and uses thereof” (X4 Pharmaceuticals, Inc., priority 2016, dated 2022).
Read-outs that look alike come from different tables or passages of the source.

Assays:
CXCR4 (U87.CXCR4 cells) = molecular target: T1, CXCR4 (U87.CXCR4 cells) (Homo sapiens, UniProt P61073); test: Intracellular CXCL-12-induced calcium mobilization assay (FLIPR); format: cell-based; conditions: CXCL-12 25-50 ng/mL, read-out: IC50 CXCL-12 Ca2+ flux U87.CXCR4+
T1 construct: expressed in transfected cells; host or cells: U87 (U87.CXCR4)
In short: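 U87.CXCR4 cells were loaded with 4 μM Fluo-2 AM for 45 min at 37 °C in HBSS/20 mM HEPES/0.2% BSA, pH 7.4. Calcium flux induced by CXCL-12 (25-50 ng/mL) was monitored kinetically by FLIPR fluorescence at 37 °C.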

[1] = molecular target: T2, CXCR4 (Jurkat cells expressing CXCR4) (Homo sapiens, UniProt P61073); test: Chemokine (CXCL12-AF647) binding inhibition assay; conditions: CXCL12-AF647 25 ng/mL, read-out: IC50 CXCL-12 binding Jurkat
T2 construct: Jurkat cells expressing CXCR4; endogenous in cells; host or cells: Jurkat
In short: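 Cells in HBSS, 20 mM HEPES, 0.2% BSA, pH 7.4, preincubated 15 min at room temperature with compound, then 25 ng/mL CXCL12-AF647 for 30 min. After washing and paraformaldehyde fixation, bound ligand read by flow cytometry; percent inhibition calculated from MFI relative to unlabeled and ligand-only controls.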

in vitro = conditions: human, Caco-2, pH 7.4
In short: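 Compound at 10 μM in HBSS pH 7.4 dosed A-to-B and B-to-A across Caco-2 monolayers, 90 min at 37 °C, duplicates. Monolayer integrity by TEER and lucifer yellow (5 μM, fluorescence 485/535 nm); compound quantified by LC-MS/MS.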

[2] = Mouse brain uptake assay (pharmacokinetics and brain penetration after IV administration); format: in vivo, Male CD1 Mice; conditions: male, 3 mg/kg IV, 3 time points; for Kp: CD1, brain and plasma, read-out: Kp (brain/plasma drug concentration ratio, AUC last(b)/AUC last(p)); for Kp / clearance / half-life: mouse, 0-1 h; for clearance / half-life: CD1, plasma; for clearance: read-out: Cl (Clearance) (converted); for half-life: read-out: t½ (half life) (converted); for AUC(0-t): CD1, time zero to 1 hr
Protocol: Example 15: Pharmacokinetics and Brain Penetration Experiment to Determine Brain and Plasma Concentrations of Compounds after IV Administration to Male CD1 Mice or Male SD Rats
The study design (9 animals) consisted of administrating the drug (IV: 3 mg/kg (5 mL/kg) via tail vein injection) and collecting samples at terminal bleeding for plasma and brain at 0.083, 0.5 and 1 h. The blood collection was performed as follows: the animal was restrained manually and approximately 150 μL blood/time point was collected into a dipotassium EDTA tube via retro orbital puncture under anesthesia with isoflurane. The blood sample was put on ice and centrifuged to obtain a plasma sample (2000 g, 5 min under 4° C.) within 15 minutes. The brain collection was performed as follows: a mid-line incision was made in the animal's scalp and the skin was retracted. Using small bone cutters and rongeurs, the skull overlying the brain was removed. The brain was removed using a spatula and the brain rinsed with cold saline. The brain was placed in screw-top tubes, and the tubes were stored at −70° C. until analysis. The IV dosing solution was prepared in 50 mM citrate buffer (pH 4.0) at 0.6 mg/mL.
Plasma Sample Preparation:
An aliquot of 30 μL sample was added to […] containing 50 ng/mL IS (Dexamethasone). The mixture was vortexed for 5 min and centrifuged at 14,000 rpm for 5 min. An aliquot of 5 μL supernatant was injected for LC-MS/MS analysis.
Brain Sample Preparation:
An aliquot of 30 μL brain homogenate (brain:PBS=1:3, w/v) sample was added to 150 μL IS in MeCN (Dexamethasone, 50 ng/mL). The mixture was vortexed for 5 min and centrifuged at 14,000 rpm for 5 min. An aliquot of 5 μL supernatant was injected for LC-MS/MS analysis.
The sample analysis was performed on LCMS/MS-003 (API4000, triple quadruple) under the following conditions: positive ion, ESI, MRM detection using dexamethasone as internal standard. HPLC conditions: mobile phase A: H2O (0.025% formic acid (FA) with 1 mM NH4OAc); mobile phase B: MeOH (0.025% FA with 1 mM NH4OAc) on Waters X-Bridge C18 (2.1×50 mm, 2.5 μm) column at 60° C.
A similar experiment was performed with 4 time points taken from 0-24 h.

[3] = mouse brain, read-out: AUClast (b) (area under the brain drug concentration-time curve)
[4] = mouse plasma, read-out: AUClast (p) (area under the plasma drug concentration-time curve)

T2 sequence (P61073 whole entry): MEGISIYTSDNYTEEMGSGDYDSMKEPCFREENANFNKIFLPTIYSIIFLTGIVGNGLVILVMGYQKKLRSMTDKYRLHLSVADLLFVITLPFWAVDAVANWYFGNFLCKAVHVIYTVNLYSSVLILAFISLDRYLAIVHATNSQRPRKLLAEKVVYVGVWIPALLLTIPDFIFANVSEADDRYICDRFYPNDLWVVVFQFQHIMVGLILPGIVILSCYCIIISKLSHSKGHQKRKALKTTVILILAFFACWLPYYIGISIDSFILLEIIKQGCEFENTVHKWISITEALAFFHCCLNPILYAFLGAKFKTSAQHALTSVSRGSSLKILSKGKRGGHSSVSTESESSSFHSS
T1 sequence (P61073 whole entry): as above

| Structure (SMILES) | IC50 (CXCR4 (U87.CXCR4 cells)) | IC50 [1] | Papp A→B at 90 min, 10 μM (in vitro) | Papp B→A at 90 min, 10 μM (in vitro) | efflux ratio at 90 min, 10 μM (in vitro) | Kp [2] | clearance [2] | half-life [2] | AUC(0-t) [2, 3] | AUC(0-t) [2, 4] |
| --- | --- | --- | --- | --- | --- | --- | --- | --- | --- | --- |
| Cc1cccnc1C1CCCN1Cc1nc2ccccc2n1C1CCN(C)CC1 (centres unmarked) [Compound I-33] | 100 to 1000 nM | 0.01 to 100 nM | 10 to 30 ×10⁻⁶ cm/s | 10 to 30 ×10⁻⁶ cm/s | 0.1 to 10 | 6.6 | 27.5 mL/min/kg | 4.93 h | 1660 ng·h/mL | 252 ng·h/mL |
| Cc1cccnc1CN1CCCC1c1nc2cccc(N3CCN(C)CC3)c2[nH]1 (centres unmarked) [Compound I-45] | 0.01 to 100 nM | 0.01 to 100 nM | 10 to 30 ×10⁻⁶ cm/s | 10 to 30 ×10⁻⁶ cm/s | 0.1 to 10 | 5.51 | 41.8 mL/min/kg | 3.99 h | 833 ng·h/mL | 151 ng·h/mL |
| CN1CCN(c2c(CN3CCCC3c3ccccn3)nc3ccccn23)CC12CC2 (centres unmarked) [Compound I-58] | 0.01 to 100 nM | 0.01 to 100 nM | 10 to 30 ×10⁻⁶ cm/s | 10 to 30 ×10⁻⁶ cm/s | 0.1 to 10 | 3.13 | 38.7 mL/min/kg | 3.43 h | 1230 ng·h/mL | 393 ng·h/mL |
| CN1CCN(c2c(CN3CCCC3c3ncccc3Cl)nc3ccccn23)CC1 (centres unmarked) [Compound I-59] | 0.01 to 100 nM | 0.01 to 100 nM | 0.1 to 10 ×10⁻⁶ cm/s | 10 to 30 ×10⁻⁶ cm/s | 0.1 to 10 | 1.05 | 58.3 mL/min/kg | 3.71 h | 240 ng·h/mL | 227 ng·h/mL |
| c1ccc(N2CCN(c3c(CN4CCCC4c4ccccn4)nc4ccccn34)CC2)cc1 (centres unmarked) [Compound I-96] | ≥ 1000 nM | 100 to 1000 nM | 10 to 30 ×10⁻⁶ cm/s | 10 to 30 ×10⁻⁶ cm/s | 0.1 to 10 | – | – | – | – | – |
| c1ccc(C2CCCN2Cc2nc3ccccn3c2N2CCN(c3ccccn3)CC2)nc1 (centres unmarked) [Compound I-97] | 100 to 1000 nM | 0.01 to 100 nM | > 30 ×10⁻⁶ cm/s | > 30 ×10⁻⁶ cm/s | 0.1 to 10 | – | – | – | – | – |
| FC(F)(F)CN1CCN(c2c(CN3CCCC3c3ccccn3)nc3ccccn23)CC1 (centres unmarked) [Compound I-98] | 100 to 1000 nM | 0.01 to 100 nM | > 30 ×10⁻⁶ cm/s | > 30 ×10⁻⁶ cm/s | 0.1 to 10 | – | – | – | – | – |
| Cc1cccnc1C1CCCN1Cc1cn2c(C3OCC(N(C)C)CO3)cccc2n1 (centres unmarked) [Compound I-99] | 100 to 1000 nM | 0.01 to 100 nM | 0.1 to 10 ×10⁻⁶ cm/s | > 30 ×10⁻⁶ cm/s | > 30 | – | – | – | – | – |
| CN1CCN(c2c(C3CCCN3Cc3ccccn3)nc3ccccn23)CC1 (centres unmarked) [Compound I-101] | 100 to 1000 nM | 0.01 to 100 nM | 0.1 to 10 ×10⁻⁶ cm/s | > 30 ×10⁻⁶ cm/s | 0.1 to 10 | – | – | – | – | – |
| CN1CCN(c2c(C3CCCN3Cc3ncccn3)nc3ccccn23)CC1 (centres unmarked) [Compound I-102] | ≥ 1000 nM | 100 to 1000 nM | 0.1 to 10 ×10⁻⁶ cm/s | > 30 ×10⁻⁶ cm/s | > 30 | – | – | – | – | – |
| Cc1cccnc1CN1CCCC1c1cn2c(N3CCN(C)CC3)cccc2n1 (centres unmarked) [Compound I-103] | 0.01 to 100 nM | 0.01 to 100 nM | 0.1 to 10 ×10⁻⁶ cm/s | > 30 ×10⁻⁶ cm/s | 0.1 to 10 | – | – | – | – | – |
| CN1CCN(c2cccc3nc(C4CCCN4Cc4ccccn4)[nH]c23)CC1 (centres unmarked) [Compound I-104] | 100 to 1000 nM | 0.01 to 100 nM | 0.1 to 10 ×10⁻⁶ cm/s | > 30 ×10⁻⁶ cm/s | 0.1 to 10 | – | – | – | – | – |
| CN1CCN(c2cccc3nc(C4CCCN4Cc4ncccn4)[nH]c23)CC1 (centres unmarked) [Compound I-105] | ≥ 1000 nM | ≥ 1000 nM | 0.1 to 10 ×10⁻⁶ cm/s | > 30 ×10⁻⁶ cm/s | 0.1 to 10 | – | – | – | – | – |
| Cc1cccnc1C1CCCN1Cc1nccn1CC1CCN(CC(F)(F)F)CC1 (centres unmarked) [Compound I-106] | ≥ 1000 nM | 100 to 1000 nM | 10 to 30 ×10⁻⁶ cm/s | > 30 ×10⁻⁶ cm/s | 0.1 to 10 | – | – | – | – | – |
| Cc1cccnc1C1CCCN1Cc1nccn1CC1CCN(C2CC2)CC1 (centres unmarked) [Compound I-107] | 0.01 to 100 nM | 0.01 to 100 nM | 0.1 to 10 ×10⁻⁶ cm/s | 10 to 30 ×10⁻⁶ cm/s | 0.1 to 10 | – | – | – | – | – |
| Cc1cccnc1C1CCCN1Cc1nccn1CC1CCN(c2ccccn2)CC1 (centres unmarked) [Compound I-109] | ≥ 1000 nM | 100 to 1000 nM | > 30 ×10⁻⁶ cm/s | > 30 ×10⁻⁶ cm/s | 0.1 to 10 | – | – | – | – | – |
| Cc1cccnc1C1CCCN1Cc1nccn1CC1CCOCC1 (centres unmarked) [Compound I-110] | ≥ 1000 nM | 100 to 1000 nM | 10 to 30 ×10⁻⁶ cm/s | > 30 ×10⁻⁶ cm/s | 0.1 to 10 | – | – | – | – | – |
| Cc1cccnc1C1CCCN1Cc1nccn1CCCCN1CCOCC1 (centres unmarked) [Compound I-111] | ≥ 1000 nM | 0.01 to 100 nM | 0.1 to 10 ×10⁻⁶ cm/s | 10 to 30 ×10⁻⁶ cm/s | 0.1 to 10 | – | – | – | – | – |
| CN1CCC(Cn2ccnc2CN2CCCC2c2ccccn2)CC1 (centres unmarked) [Compound I-112] | 100 to 1000 nM | 0.01 to 100 nM | 0.1 to 10 ×10⁻⁶ cm/s | 10 to 30 ×10⁻⁶ cm/s | > 30 | – | – | – | – | – |
| Cc1cccnc1C1CCCN1Cc1ncccc1CC1CCN(C)CC1 (centres unmarked) [Compound I-117] | 0.01 to 100 nM | 0.01 to 100 nM | 0.1 to 10 ×10⁻⁶ cm/s | > 30 ×10⁻⁶ cm/s | > 30 | – | – | – | – | – |
| Cc1cccnc1C1CCCN1Cc1ncccc1CN1CCOCC1 (centres unmarked) [Compound I-118] | ≥ 1000 nM | 100 to 1000 nM | 0.1 to 10 ×10⁻⁶ cm/s | > 30 ×10⁻⁶ cm/s | 0.1 to 10 | – | – | – | – | – |
| Cc1cccnc1C1CCCN1Cc1nc2ccccn2c1CN1CCOCC1 (centres unmarked) [Compound I-119] | 100 to 1000 nM | 0.01 to 100 nM | 0.1 to 10 ×10⁻⁶ cm/s | > 30 ×10⁻⁶ cm/s | 10 to 30 | – | – | – | – | – |
| Cc1cccnc1C1CCCN1Cc1nc2ccccc2n1CC1CCN(C)CC1 (centres unmarked) [Compound I-122] | 0.01 to 100 nM | 0.01 to 100 nM | 0.1 to 10 ×10⁻⁶ cm/s | > 30 ×10⁻⁶ cm/s | 0.1 to 10 | – | – | – | – | – |
| CN1CCN(C(=O)c2c(CN3CCCC3c3ccccn3)nc3ccccn23)CC1 (centres unmarked) [Compound I-123] | ≥ 1000 nM | 100 to 1000 nM | 0.1 to 10 ×10⁻⁶ cm/s | 10 to 30 ×10⁻⁶ cm/s | 0.1 to 10 | – | – | – | – | – |
